Holding throughout (format): cell-based, human
The test system of data set [1] is ΔK280 tauRD-DsRed SH-SY5Y cells. Nature of the data set: High-content analysis of neurite outgrowth. The following applies: 10 µM; for Neurite branching: induced untreated 0.87, uninduced 0.99; for Neurite length: induced untreated 27.2 μm, uninduced 30.9 μm. Here is the method:
(§1) As described, ∆K280 tauRD-DsRed SH-SY5Y cells were seeded in a 24-well plate (5 × 10^4/well) with retinoic acid addition on day 1, treated with tested compounds (10 µM) and ∆K280 tauRD-DsRed expression was induced with doxycycline (2 μg/mL) on day 2. On day 8, after being fixed in 4% paraformaldehyde for 15 min, permeabilized in 0.1% Triton X-100 for 10 min and blocked in 3% bovine serum albumin (BSA) for 20 min, the cells were stained with TUBB3 (neuronal class III β-tubulin) primary antibody (1:1000; BioLegend, San Diego, CA, USA) at 4 °C overnight, followed by goat anti-rabbit Alexa Fluor® 555 secondary antibody (1:1000; Molecular probes) at room temperature for 2 h, with 4′-6-diamidino-2-phenylindole (DAPI, 0.1 µg/mL; Sigma-Aldrich) included for nuclei staining. Neuronal images were captured using the high-content analysis system as described. Neurite total length (μm), processes (primary neurite extensions projecting directly from the cell body) and branching (points at which primary neurites bifurcated) were analyzed using Neurite Outgrowth Application Module (MetaXpress; Molecular Devices). Around 5000 cells were analyzed in each of three independent experiments for each sample.

Data set [2] has the same test system. Nature of the data set: Neurite outgrowth in cells infected with TRKB-specific or scrambled shRNA. The following applies: scrambled shRNA; 10 µM. The method, then:
as §1
Lentiviral short hairpin RNA (shRNA) targeting TRKB (TRCN0000002243, TRCN0000002245 and TRCN0000002246) and a negative control scrambled (TRC2.Void, ASN000001) from National RNAi Core Facility, IMB/GRC, Academia Sinica, Taipei, Taiwan were applied to knock down TRKB expression in ∆K280 tauRD-DsRed SH-SY5Y cells. On day 1, cells were plated on 6-well (for protein analysis) or 24-well (for neurite outgrowth analysis) plates in the presence of retinoic acid as described. On day 2, the cells were infected with lentivirus (multiplicity of infection of 3 for each shRNA) in medium containing polybrene (8 µg/mL; Sigma-Aldrich) to increase the efficiency of viral infection. […] On day 9, the cells were collected for TRKB protein analysis or analyzed for neurite outgrowth as described.

Data set [3] in a line: High-content analysis of ΔK280 tauRD-DsRed fluorescence and cell number (folding reporter). The following applies: human; induced ΔK280 tauRD-DsRed SH-SY5Y; compounds 2.5–10 µM; read-out: IC50 cytotoxicity based on the cell number analyzed. Here is the method: On day 1, ∆K280 tauRD-DsRed SH-SY5Y cells were seeded in a 96-well plate (3 × 10^4/well), with retinoic acid (10 µM; Sigma-Aldrich) added to induce neuronal differentiation. […] […] For ROS measurement, dichloro-dihydro-fluorescein diacetate (DCFH-DA, 10 µM; Invitrogen, Carlsbad, CA, USA) was added to the cells on day 8 and incubated at 37 °C for 30 min.

The subject of data set [4] is p-JNK (T183/Y185). Description: Immunoblot of p-JNK (T183/Y185). As to conditions: 10 µM; versus 107% untreated; p > 0.05. The method, then:
(§2) ∆K280 tauRD-DsRed SH-SY5Y cells were lysed in buffer containing 50 mM Tris-HCl (pH 8.0), 150 mM NaCl, 1 mM EDTA (pH 8.0), 1 mM EGTA (pH 8.0), 0.1% SDS, 0.5% sodium deoxycholate, 1% Triton X-100 and protease (Sigma-Aldrich)/phosphatase (Roche, Basel, Switzerland) inhibitor cocktails. After two sonications with an interval of 30 min on ice, cell lysates were collected by centrifugation at 14,000× g for 30 min at 4 °C. Protein concentrations were determined using a Bradford assay (Bio-Rad, Hercules, CA, USA). Protein samples (25 µg) were separated by 10–12% SDS-PAGE and transferred to polyvinylidene difluoride (PVDF) membranes (Sigma-Aldrich). […] After three washes with TBST, the immune complexes were detected using horseradish peroxidase-conjugated goat anti-mouse or goat anti-rabbit secondary IgG antibody (1:5000, GeneTex, Irvine, CA, USA) and enhanced chemiluminescence substrates luminol and peroxide (Millipore). […]
(Immunoblotting shows a protein as a band on a membrane.)

Data set [5] has as its system p-CREB (S133). Description: Immunoblot of p-CREB (S133). Here is the method: (§3) ∆K280 tauRD-DsRed SH-SY5Y cells in 6-well plates (5 × 10^5/well) were treated with retinoic acid (10 µM) on day 1, followed by LMDS-1 or -2 (10 µM) and doxycycline (2 µg/mL) addition on day 2 as described. ERK inhibitor U0126 or PI3K inhibitor wortmannin (10 μM) (LC Laboratories, Woburn, MA, USA) was added on day 6. On day 8, the cells were collected for BDNF, BCL2, BAX and total/phosphorylated TRKB, ERK, AKT, CREB protein analyses as described.
(§4) ∆K280 tauRD-DsRed SH-SY5Y cells were lysed in buffer containing 50 mM Tris-HCl (pH 8.0), 150 mM NaCl, 1 mM EDTA (pH 8.0), 1 mM EGTA (pH 8.0), 0.1% SDS, 0.5% sodium deoxycholate, 1% Triton X-100 and protease (Sigma-Aldrich)/phosphatase (Roche, Basel, Switzerland) inhibitor cocktails. After two sonications with an interval of 30 min on ice, cell lysates were collected by centrifugation at 14,000× g for 30 min at 4 °C. Protein concentrations were determined using a Bradford assay (Bio-Rad, Hercules, CA, USA). Protein samples (25 µg) were separated by 10–12% SDS-PAGE and transferred to polyvinylidene difluoride (PVDF) membranes (Sigma-Aldrich). After blocking for 2 h with 10% skimmed milk or 5% BSA in 0.1% Tween 20 in Tris-buffered saline (TBST), the membrane was incubated with primary antibody against BDNF (1:500; Santa Cruz, Santa Cruz, CA, USA), BCL2 (1:500; BioVision), BAX (1:500; BioVision), TRKB (1:1000; Cell Signaling, Danvers, MA, USA), p-TRKB (Y516) (1:1000; Cell Signaling), p-TRKB (Y817) (1:1000; Millipore, Billerica, MA, USA), ERK (1:1000; Cell Signaling), p-ERK (T202/Y204) (1:500; Cell Signaling), AKT (1:1000; Cell Signaling), p-AKT (S473) (1:1000; Cell Signaling), CREB (1:1000; Santa Cruz), p-CREB (S133) (1:1000; Millipore), JNK (1:1000; Cell Signaling), p-JNK (T183/Y185) (1:1000; Cell Signaling) or loading control glyceraldehyde-3-phosphate dehydrogenase (GAPDH) (1:1000; MDBio, Taipei, Taiwan). After three washes with TBST, the immune complexes were detected using horseradish peroxidase-conjugated goat anti-mouse or goat anti-rabbit secondary IgG antibody (1:5000, GeneTex, Irvine, CA, USA) and enhanced chemiluminescence substrates luminol and peroxide (Millipore). The primary and secondary antibodies used were diluted with TBST. The chemiluminescent detection was performed on ImageQuant™ LAS 4000mini (GE Healthcare).

The test system of data set [6] is p-ERK (T202/Y204). Nature of the data set: Immunoblot of p-ERK (T202/Y204). Here is the method:
as §3, §4

Data set [7] concerns m-BDNF (13 kDa). Nature of the data set: Immunoblot of m-BDNF. The following applies: 10 µM; induced untreated 69%. The method, then: as §3, §2
The subject of data set [8] is p-TRKB (Y516 and Y817). Description: Immunoblot of p-TRKB (Y516 and Y817). As to conditions: for p-TRKB Y516 level / p-TRKB Y817 level: 10 µM; for p-TRKB Y516 level: induced untreated 67%; for p-TRKB Y817 level: induced untreated 74%; for p-TRKB (Y516/Y817) level: BDNF 100 ng/mL, LMDS-1/2 10 μM, induced untreated 77–83%, Figure 6B. The method, then:
as §3, §4

Setting [9] is: 10 µM, induced untreated 78%, Figure 5C.
The mark [10] stands for this setting: BDNF 100 ng/mL, LMDS-1/2 10 μM, induced untreated 72%, Figure 6B.

Structures are written as SMILES.

For the compound `O=C(c1ccccc1)c1cc2c(O)cccc2oc1=O` [LM-031, 3-benzoyl-5-hydroxychromen-2-one], in data set [1], the Neurite branching is 1.00–1.06 and the Neurite length was 30.3–31.5 μm. Further, the Neurite branching in data set [2] was 1.05–1.07. Further, the IC50 (as a rule, the point on the concentration scale where inhibition reaches its midpoint) at 6 days in data set [3] is 43 µM.
Regarding `CCOc1ccc2cc(C(=O)c3ccccc3)c(=O)oc2c1` [LMDS-1], the “p-JNK (T183/Y185) expression” value in data set [4] is reported as 93–108%. For the same compound, in data set [1], the Neurite branching was 1.00–1.06 and the Neurite length is given as 30.3–31.5 μm. Besides, the Neurite branching in data set [2] is 1.05–1.07. Further, the p-CREB level in data set [5] (setting [9]) is recorded as 105–108%. The p-CREB level in data set [5] (setting [10]) is listed as 90–95%. Moreover, in data set [6] (10 µM plus U0126 10 μM), the p-ERK level is 65–66%. The p-ERK level in data set [6] (10 µM, induced untreated 76%) is reported as 101–102%. For the same compound, in data set [7], the m-BDNF level is given as 97–102%. In data set [8], the “p-TRKB Y516 level” value is reported as 92–93%, the “p-TRKB Y817 level” value was 103–105% and the “p-TRKB (Y516/Y817) level” value is on record as 96–104%. Also, the IC50 at 6 days in data set [3] amounted to 25 µM.
For the compound `O=C(c1ccccc1)c1cc2ccc(O)cc2oc1=O` [LMDS-2], the “p-JNK (T183/Y185) expression” value in data set [4] is 93–108%. In data set [1], the Neurite branching is on record as 1.00–1.06 and the Neurite length is reported as 30.3–31.5 μm. Besides, the Neurite branching in data set [2] is reported as 1.05–1.07. Also, the p-CREB level in data set [5] (setting [9]) was 105–108%. For the same compound, the p-CREB level in data set [5] (setting [10]) is 90–95%. Moreover, the p-ERK level in data set [6] (10 µM plus U0126 10 μM) is on record as 65–66%. Besides, the p-ERK level in data set [6] (10 µM, induced untreated 76%) is on record as 101–102%. In data set [7], the m-BDNF level is recorded as 97–102%. In data set [8], the “p-TRKB Y516 level” value was 92–93%, the “p-TRKB Y817 level” value was 103–105% and the “p-TRKB (Y516/Y817) level” value is recorded as 96–104%. Also, the IC50 at 6 days in data set [3] amounted to 24 µM.

Values taken from publication PMC9654711, “Neuroprotective Action of Coumarin Derivatives through Activation of TRKB-CREB-BDNF Pathway and Reduction of Caspase Activity in Neuronal Cells Expressing Pro-Aggregated Tau Protein” (International Journal of Molecular Sciences, 2022).
